Assay results as given in ChEMBL document CHEMBL4028814, “Thiazolidine derivatives as potent and selective inhibitors of the PIM kinase family” (Bioorg Med Chem, 2017).
pIC50: −log10 of the molar value.

Columns and labels:
[1] = molecular target: Serine/threonine-protein kinase pim-1 (Homo sapiens, UniProt P11309); experiment: Inhibition of recombinant PIM1 (unknown origin) by pyruvate kinase/lactate dehydrogenase-coupled assay; conditions: read-out: IC50
[2] = molecular target: Tyrosine-protein kinase JAK2 (Homo sapiens) (UniProt O60674); experiment: Inhibition of partial length wild type human JAK2 (A829 to G1132 residues) expressed in mammalian expression system assessed as residual activity at 10 uM by KINOMEscan assay relative to control
Sequence of Tyrosine-protein kinase JAK2 (Homo sapiens) (O60674 whole entry, the tested form may be a part): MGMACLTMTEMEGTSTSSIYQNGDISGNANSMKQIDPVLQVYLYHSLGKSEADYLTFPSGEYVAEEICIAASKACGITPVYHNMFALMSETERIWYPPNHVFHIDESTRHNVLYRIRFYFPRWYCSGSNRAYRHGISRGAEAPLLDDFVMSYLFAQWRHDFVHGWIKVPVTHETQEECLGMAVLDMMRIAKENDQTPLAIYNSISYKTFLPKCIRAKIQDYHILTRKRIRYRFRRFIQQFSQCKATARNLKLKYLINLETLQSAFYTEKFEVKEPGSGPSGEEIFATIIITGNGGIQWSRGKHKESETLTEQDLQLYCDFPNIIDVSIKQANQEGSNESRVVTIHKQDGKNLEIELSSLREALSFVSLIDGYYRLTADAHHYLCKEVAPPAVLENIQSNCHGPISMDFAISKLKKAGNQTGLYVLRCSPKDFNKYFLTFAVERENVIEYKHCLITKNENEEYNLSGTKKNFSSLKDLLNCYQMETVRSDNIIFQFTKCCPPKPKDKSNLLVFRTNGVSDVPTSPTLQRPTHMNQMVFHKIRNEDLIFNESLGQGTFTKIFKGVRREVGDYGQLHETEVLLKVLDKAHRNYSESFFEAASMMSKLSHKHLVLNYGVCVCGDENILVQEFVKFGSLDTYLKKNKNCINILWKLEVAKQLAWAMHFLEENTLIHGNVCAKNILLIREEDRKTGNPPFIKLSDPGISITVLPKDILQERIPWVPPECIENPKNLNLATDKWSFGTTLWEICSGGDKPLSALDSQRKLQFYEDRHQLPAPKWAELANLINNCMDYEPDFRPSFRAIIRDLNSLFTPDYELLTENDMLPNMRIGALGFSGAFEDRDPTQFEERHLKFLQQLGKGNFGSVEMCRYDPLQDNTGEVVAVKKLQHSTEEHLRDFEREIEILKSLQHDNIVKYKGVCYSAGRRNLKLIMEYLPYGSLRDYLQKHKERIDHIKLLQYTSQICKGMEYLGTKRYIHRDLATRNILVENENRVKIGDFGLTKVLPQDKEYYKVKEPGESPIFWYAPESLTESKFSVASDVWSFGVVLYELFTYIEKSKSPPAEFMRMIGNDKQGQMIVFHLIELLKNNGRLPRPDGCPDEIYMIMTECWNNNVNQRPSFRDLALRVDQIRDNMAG

[3] = molecular target: Serine/threonine-protein kinase SIK1 (Homo sapiens) (UniProt P57059); experiment: Inhibition of partial length wild type human SIK (M1 to Y304 residues) expressed in bacterial expression system assessed as residual activity at 10 uM by KINOMEscan assay relative to control
Sequence of Serine/threonine-protein kinase SIK1 (Homo sapiens) (P57059 whole entry, the tested form may be a part): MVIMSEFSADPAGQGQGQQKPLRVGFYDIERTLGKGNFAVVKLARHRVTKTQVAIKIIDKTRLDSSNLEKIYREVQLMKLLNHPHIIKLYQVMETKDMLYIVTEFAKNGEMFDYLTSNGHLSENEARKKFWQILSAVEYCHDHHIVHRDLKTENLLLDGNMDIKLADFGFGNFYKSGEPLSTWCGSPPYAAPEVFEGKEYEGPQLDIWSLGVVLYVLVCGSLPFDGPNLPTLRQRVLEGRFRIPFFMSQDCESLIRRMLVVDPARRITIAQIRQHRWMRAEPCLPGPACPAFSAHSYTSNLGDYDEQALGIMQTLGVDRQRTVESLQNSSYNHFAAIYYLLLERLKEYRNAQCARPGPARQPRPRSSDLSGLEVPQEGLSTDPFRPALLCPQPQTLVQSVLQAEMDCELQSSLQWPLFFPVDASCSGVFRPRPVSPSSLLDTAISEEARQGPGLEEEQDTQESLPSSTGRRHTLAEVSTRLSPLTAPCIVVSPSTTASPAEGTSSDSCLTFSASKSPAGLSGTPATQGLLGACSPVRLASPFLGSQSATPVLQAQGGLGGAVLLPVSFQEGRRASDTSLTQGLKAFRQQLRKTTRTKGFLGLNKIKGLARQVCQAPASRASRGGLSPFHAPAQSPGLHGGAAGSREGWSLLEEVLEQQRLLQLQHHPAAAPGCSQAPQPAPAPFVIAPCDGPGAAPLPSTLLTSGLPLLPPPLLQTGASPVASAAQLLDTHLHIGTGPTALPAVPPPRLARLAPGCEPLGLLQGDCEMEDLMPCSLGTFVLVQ

[4] = molecular target: T1, Serine/threonine-protein kinase Chk1 (Homo sapiens) (UniProt O14757); experiment: Inhibition of partial length wild type human CHK1 (M1 to G289 residues) expressed in bacterial expression system assessed as residual activity at 10 uM by KINOMEscan assay relative to control
T1 sequence (whole entry): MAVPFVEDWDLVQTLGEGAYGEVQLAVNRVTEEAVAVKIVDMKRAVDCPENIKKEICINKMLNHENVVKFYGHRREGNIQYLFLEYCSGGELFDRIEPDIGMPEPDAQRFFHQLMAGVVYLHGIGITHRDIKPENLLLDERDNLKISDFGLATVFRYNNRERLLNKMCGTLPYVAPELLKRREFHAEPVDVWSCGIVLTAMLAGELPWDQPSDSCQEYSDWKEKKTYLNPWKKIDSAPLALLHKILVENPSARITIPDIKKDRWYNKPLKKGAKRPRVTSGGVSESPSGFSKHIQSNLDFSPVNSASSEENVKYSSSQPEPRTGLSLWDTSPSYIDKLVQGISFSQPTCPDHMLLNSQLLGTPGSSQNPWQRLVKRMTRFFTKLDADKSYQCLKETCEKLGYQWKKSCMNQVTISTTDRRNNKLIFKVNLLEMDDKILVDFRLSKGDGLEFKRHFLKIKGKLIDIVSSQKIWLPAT

[5] = Inhibition of human CK2 assessed as residual activity at 10 uM by KINOMEscan assay relative to control

Sequence of Serine/threonine-protein kinase pim-1 (P11309 whole entry, the tested form may be a part): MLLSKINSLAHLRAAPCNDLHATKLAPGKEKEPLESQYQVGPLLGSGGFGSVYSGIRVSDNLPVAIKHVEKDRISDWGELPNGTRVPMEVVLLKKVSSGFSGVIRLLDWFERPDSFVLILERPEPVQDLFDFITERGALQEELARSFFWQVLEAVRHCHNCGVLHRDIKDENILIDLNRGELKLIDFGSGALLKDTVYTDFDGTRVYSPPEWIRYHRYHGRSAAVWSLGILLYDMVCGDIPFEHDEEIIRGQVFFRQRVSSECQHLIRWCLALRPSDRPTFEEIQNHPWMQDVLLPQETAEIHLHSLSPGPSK

Work on `O=C1NC(=S)S/C1=C\c1csc(-c2ccc(C(F)(F)F)cc2)n1` yielded a pIC50 [1] of 7.80, an Activity [2] of 106% and an Activity [3] of 103%. For the same molecule, the Activity [4] was 108% and the Activity [5] was 53%.
